Read-outs that look alike come from different tables or passages of the source.
Target: T1, Human GO (Homo sapiens, UniProt Q9UJM8)
T1 construct: purchased Novus Biologicals NBP1-72412
T1 sequence (Q9UJM8 1-370): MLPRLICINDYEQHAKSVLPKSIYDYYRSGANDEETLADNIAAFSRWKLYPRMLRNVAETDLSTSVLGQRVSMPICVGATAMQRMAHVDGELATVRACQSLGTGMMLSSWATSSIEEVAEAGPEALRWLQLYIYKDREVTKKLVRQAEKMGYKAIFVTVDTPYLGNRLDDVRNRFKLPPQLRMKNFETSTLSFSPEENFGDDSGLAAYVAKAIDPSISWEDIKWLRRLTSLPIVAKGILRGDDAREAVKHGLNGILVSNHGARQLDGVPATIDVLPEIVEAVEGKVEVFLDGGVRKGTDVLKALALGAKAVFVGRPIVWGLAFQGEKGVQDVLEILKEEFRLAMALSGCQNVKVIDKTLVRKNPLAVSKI
Assay: GO enzymatic assay (coupled fluorescence/HRP assay, glycolate substrate)
Type: biochemical
Method in brief: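 Coupled HRP/fluorescence read-out of glycolate oxidation by human GO in 50 mM potassium phosphate buffer (pH 7). Inhibitors added across a concentration range.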

[1] = Table 4, read-out: Range (range of IC50 values calculated from the enzymatic assays)

Structure (SMILES)	IC50 [1]	IC50
CCC(OC(=O)c1[nH]nnc1O[C@H]1CC[C@H](c2ccc(OC(F)(F)F)cc2)CC1)OC(=O)C1CCCCC1 (stereo partly drawn) [Compound 392, 1-((cyclohexanecarbonyl)oxy)propyl 4-(((trans)-4-(4-(trifluoromethoxy)phenyl)cyclohexyl)oxy)-1H-1,2,3-triazole-5-carboxylate]	100 to 1000 nM	
O=C(O)c1[nH]nnc1O[C@H]1CC[C@H](c2cc(Cl)ccc2OC(F)(F)F)CC1 [Compound 393, 4-(((trans)-4-(5-chloro-2-(trifluoromethoxy)phenyl)cyclohexyl)oxy)-1H-1,2,3-triazole-5-carboxylic acid]	< 100 nM	
O=C(O)c1[nH]nnc1Oc1ccc(F)c(OCc2ccc(OC(F)(F)F)cc2)c1 [Compound 400, 4-(4-fluoro-3-((4-(trifluoromethoxy)benzyl)oxy)phenoxy)-1H-1,2,3-triazole-5-carboxylic acid 2,2,2-trifluoroacetate]	< 100 nM	
CS(=O)(=O)c1ccc(-c2ccc(Oc3[nH]nnc3C(=O)O)cc2)cc1 [Compound 401, 4-((4′-(methylsulfonyl)-[1,1′-biphenyl]-4-yl)oxy)-1H-1,2,3-triazole-5-carboxylic acid 2,2,2-trifluoroacetate]		< 100 nM
O=C(O)c1[nH]nnc1SC1CCN(c2cc(OC(F)(F)F)ccc2Cl)CC1 [Compound 402, 4-((1-(2-chloro-5-(trifluoromethoxy)phenyl)piperidin-4-yl)thio)-1H-1,2,3-triazole-5-carboxylic acid]	< 100 nM	
O=C(O)c1[nH]nnc1Oc1ccc(-c2ccc(N3CCCCC3)cc2)c(Cl)c1 [Compound 406, 4-((2-chloro-4′-(piperidin-1-yl)-[1,1′-biphenyl]-4-yl)oxy)-1H-1,2,3-triazole-5-carboxylic acid 2,2,2-trifluoroacetate]	< 100 nM	
O=C(O)c1[nH]nnc1Oc1ccc(-c2ccc(N3CCCCC3)cc2Cl)cc1 [Compound 407, 4-((2′-chloro-4′-(piperidin-1-yl)-[1,1′-biphenyl]-4-yl)oxy)-1H-1,2,3-triazole-5-carboxylic acid]	< 100 nM	
O=C(O)c1[nH]nnc1Oc1ccc(Cl)c(OCc2ccc(OC(F)(F)F)cc2)c1 [Compound 408, 4-(4-chloro-3-((4-(trifluoromethoxy)benzyl)oxy)phenoxy)-1H-1,2,3-triazole-5-carboxylic acid]	< 100 nM	
NS(=O)(=O)c1ccc(-c2ccc(Oc3nn[nH]c3C(=O)O)cc2)cc1 [Compound 413, 4-((4′-sulfamoyl-[1,1′-biphenyl]-4-yl)oxy)-1H-1,2,3-triazole-5-carboxylic acid]	< 100 nM	
O=C(O)c1[nH]nnc1Oc1ccc(Cl)c(OCc2ccc(C(F)(F)F)cc2)c1 [Compound 415, 4-(4-chloro-3-((4-(trifluoromethyl)benzyl)oxy)phenoxy)-1H-1,2,3-triazole-5-carboxylic acid]	< 100 nM	
N#Cc1ccc(Oc2nn[nH]c2C(=O)O)cc1OCc1ccc(OC(F)(F)F)cc1 [Compound 421, 4-(4-cyano-3-((4-(trifluoromethoxy)benzyl)oxy)phenoxy)-1H-1,2,3-triazole-5-carboxylic acid]	< 100 nM	
O=C(O)c1[nH]nnc1O[C@H]1C[C@@H]2CN(c3ccc(Cl)c(Cl)c3)C[C@@H]2C1 [Compound 427, 4-(((3aR,5s,6aS)-2-(3,4-dichlorophenyl)octahydrocyclopenta[c]pyrrol-5-yl)oxy)-1H-1,2,3-triazole-5-carboxylic acid]	< 100 nM	
O=C(O)c1[nH]nnc1S[C@H]1C[C@@H]2CN(c3ccc(Cl)c(Cl)c3)C[C@@H]2C1 [Compound 428, 4-(((3aR,5s,6aS)-2-(3,4-dichlorophenyl)octahydrocyclopenta[c]pyrrol-5-yl)thio)-1H-1,2,3-triazole-5-carboxylic acid]	< 100 nM	
O=C(O)c1[nH]nnc1OC1CCN(c2cc(OC(F)(F)F)ccc2Cl)CC1 [Compound 429, 4-((1-(2-chloro-5-(trifluoromethoxy)phenyl)piperidin-4-yl)oxy)-1H-1,2,3-triazole-5-carboxylic acid]	< 100 nM	
O=C(O)c1[nH]nnc1CSC1CCC2(CCCC2)CC1 [Compound 435, 4-((spiro[4.5]decan-8-ylthio)methyl)-1H-1,2,3-triazole-5-carboxylic acid]	< 100 nM	
N#CC1(c2ccc(OC(F)(F)F)cc2)CCC(Oc2nn[nH]c2C(=O)O)CC1 (stereo not shown) [Compound 437, 4-((4-cyano-4-(4-(trifluoromethoxy)phenyl)cyclohexyl)oxy)-1H-1,2,3-triazole-5-carboxylic acid]	< 100 nM	
COC1(c2ccc(OC(F)(F)F)cc2)CC(Oc2nn[nH]c2C(=O)O)C1 (stereo not shown) [Compound 440, 4-(3-methoxy-3-(4-(trifluoromethoxy)phenyl)cyclobutoxy)-1H-1,2,3-triazole-5-carboxylic acid]	100 to 1000 nM	

Structure (SMILES)	IC50 [1]	IC50
O=C(O)c1[nH]nnc1S[C@H]1CC[C@@H](c2ccc(N3CCCCC3)c(Cl)c2)CC1 [Compound 442-1, 4-(((cis)-4-(3-chloro-4-(piperidin-1-yl)phenyl)cyclohexyl)thio)-1H-1,2,3-triazole-5-carboxylic acid 2,2,2-trifluoroacetate]	< 100 nM	
O=C(O)c1[nH]nnc1S[C@H]1CC[C@H](c2ccc(N3CCCCC3)c(Cl)c2)CC1 [Compound 442-2, 4-(((trans)-4-(3-chloro-4-(piperidin-1-yl)phenyl)cyclohexyl)thio)-1H-1,2,3-triazole-5-carboxylic acid 2,2,2-trifluoroacetate]	< 100 nM	
C[C@]1(c2ccc(OC(F)(F)F)cc2)CC[C@H](Oc2nn[nH]c2C(=O)O)CC1 [Compound 443, 4-(((1r,4r)-4-methyl-4-(4-(trifluoromethoxy)phenyl)cyclohexyl)oxy)-1H-1,2,3-triazole-5-carboxylic acid]	< 100 nM	
C[C@]1(c2ccc(OC(F)(F)F)cc2)CC[C@@H](Oc2nn[nH]c2C(=O)O)CC1 [Compound 444, 4-(((1s,4s)-4-methyl-4-(4-(trifluoromethoxy)phenyl)cyclohexyl)oxy)-1H-1,2,3-triazole-5-carboxylic acid]	< 100 nM	
O=C(O)c1[nH]nnc1O[C@H]1CC[C@H](c2ccc(OC3CC3)cc2)CC1 [Example 446, 4-(((trans)-4-(4-cyclopropoxyphenyl)cyclohexyl)oxy)-1H-1,2,3-triazole-5-carboxylic acid]	< 100 nM	
O=C(O)c1[nH]nnc1O[C@H]1CC[C@H](c2ccc(F)cc2)CC1 [Example 447, 4-(((trans)-4-(4-fluorophenyl)cyclohexyl)oxy)-1H-1,2,3-triazole-5-carboxylic acid]	< 100 nM	
O=C(O)c1[nH]nnc1Oc1ccc(Cl)c(OC2CCC2)c1 [Example 448, 4-(4-chloro-3-cyclobutoxyphenoxy)-1H-1,2,3-triazole-5-carboxylic acid]	< 100 nM	
O=C(O)c1[nH]nnc1OC1CC(c2ccc(OC(F)(F)F)cc2)C1 (stereo not shown) [Example 449, 4-(3-(4-(trifluoromethoxy)phenyl)cyclobutoxy)-1H-1,2,3-triazole-5-carboxylic acid]	< 100 nM	
O=C(O)c1[nH]nnc1Oc1ccc(-c2ccc(-n3cccn3)cc2)cc1 [Example 450, 4-((4′-(1H-pyrazol-1-yl)-[1,1′-biphenyl]-4-yl)oxy)-1H-1,2,3-triazole-5-carboxylic acid 2,2,2-trifluoroacetate]	< 100 nM	
O=C(O)c1[nH]nnc1N[C@H]1CC[C@H](c2ccc(OC(F)(F)F)cc2)CC1 [Example 451, 4-(((trans)-4-(4-(trifluoromethoxy)phenyl)cyclohexyl)amino)-1H-1,2,3-triazole-5-carboxylic acid]	< 100 nM	
O=C(O)c1[nH]nnc1N[C@H]1CC[C@@H](c2ccc(OC(F)(F)F)cc2)CC1 [Example 452, 4-(((cis)-4-(4-(trifluoromethoxy)phenyl)cyclohexyl)amino)-1H-1,2,3-triazole-5-carboxylic acid]	< 100 nM	
O=C(O)c1[nH]nnc1OC1CCC(O)(c2ccc(OC(F)(F)F)cc2)CC1 (stereo not shown) [Example 453, 4-((4-hydroxy-4-(4-(trifluoromethoxy)phenyl)cyclohexyl)oxy)-1H-1,2,3-triazole-5-carboxylic acid]	100 to 1000 nM	
O=C(O)c1[nH]nnc1OC1CC=C(c2ccc(OC(F)(F)F)cc2)CC1 (stereo not shown) [Example 454, 4-((4′-(trifluoromethoxy)-2,3,4,5-tetrahydro-[1,1′-biphenyl]-4-yl)oxy)-1H-1,2,3-triazole-5-carboxylic acid]	< 100 nM	
O=C(O)c1[nH]nnc1OC1C[C@@H]2CC(c3ccc(OC(F)(F)F)cc3)C[C@@H]2C1 (stereo partly drawn) [Example 455, 4-(((cis-3a,6a)-5-(4-(trifluoromethoxy)phenyl)octahydropentalen-2-yl)oxy)-1H-1,2,3-triazole-5-carboxylic acid]	< 100 nM	
O=C(O)c1[nH]nnc1CO[C@H]1CC[C@H](c2ccc(OC(F)(F)F)cc2)CC1 [Example 456, 4-((((trans)-4-(4-(trifluoromethoxy)phenyl)cyclohexyl)oxy)methyl)-1H-1,2,3-triazole-5-carboxylic acid]	100 to 1000 nM	
NS(=O)(=O)c1ccc([C@H]2CC[C@H](Oc3nn[nH]c3C(=O)O)CC2)cc1 [Example 457, 4-(((trans)-4-(4-sulfamoylphenyl)cyclohexyl)oxy)-1H-1,2,3-triazole-5-carboxylic acid]	< 100 nM	
O=C(O)c1[nH]nnc1S[C@H]1CC[C@H](c2ccc(-n3cccn3)cc2)CC1 [Example 459, 4-(((trans)-4-(4-(1H-pyrazol-1-yl)phenyl)cyclohexyl)thio)-1H-1,2,3-triazole-5-carboxylic acid 2,2,2-trifluoroacetate]	< 100 nM	

Source: patent US11384055B2 (BIOMARIN PHARMACEUTICAL INC., priority 2017, dated 2022)
